According to paper PMC8196580, “Identification of Kaurane-Type Diterpenes as Inhibitors of Leishmania Pteridine Reductase I” (Molecules, 2021):
Where two headings read alike, the source gives them in different places.

Columns and labels:
LmPTR1 = molecular target: T1, LmPTR1 (Leishmania major, UniProt Q01782); assay: LmPTR1 enzyme inhibition assay (spectrophotometric, NADPH oxidation at 340 nm); format: biochemical; conditions: for IC50: NADPH 250 µM, pH 6.0, 30 °C, 0.1–128 µM
T1 construct: made in house
T1 sequence (Q01782 1-288): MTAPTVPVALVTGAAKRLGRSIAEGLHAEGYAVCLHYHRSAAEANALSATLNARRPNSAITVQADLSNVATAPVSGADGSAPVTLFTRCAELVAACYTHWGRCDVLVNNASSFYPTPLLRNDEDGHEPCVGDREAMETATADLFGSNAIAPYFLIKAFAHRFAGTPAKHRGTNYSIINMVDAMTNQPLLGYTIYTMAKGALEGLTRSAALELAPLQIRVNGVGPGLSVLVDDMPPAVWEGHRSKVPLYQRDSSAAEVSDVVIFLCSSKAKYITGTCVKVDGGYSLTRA
Method: The selected synthetic diterpene esters 135, 301, 302, 301a, and 302a were tested in vitro to experimentally determine their abilities to inhibit the enzymatic activity of LmPTR1 as an extension of the results provided by the in silico screening. […] The IC50 was then calculated for the tested diterpenes, and these values were used to calculate the apparent inhibitory constant (Ki^app) (Table 3) using the Cheng–Prusoff equation, assuming reversible competitive inhibition and 1:1 stoichiometry. PMA, a known PTR1 inhibitor, was used as a positive control. […] Therefore, a reasonable inference based on this small set of compounds is that the presence of a p-hydroxyl group at the phenylpropanoid moiety might favor inhibitory activity, whereas a 9β-hydroxyl group at the diterpene moiety has a negative influence on LmPTR1 inhibition.
Recombinant LmPTR1 enzyme was obtained, purified, and kinetically characterized, as reported previously. The in vitro assessment of selected diterpenes (i.e., 135, 301, 302, 301a, and 302a) for LmPTR1 inhibitory activity was performed through the spectrophotometric monitoring of the enzymatic activity under balanced conditions: LmPTR1 (30 µg), 7,8-dihydro-L-biopterin (DHB, 20 µM), sodium citrate buffer (20 mM, pH 6.0), 30 °C, and a final assay volume of 600 µL. Each reaction was started by the addition of 250 µM NADPH. Absorbance was monitored at 340 nm (i.e., oxidation of NADPH to NADP+) for 240 s, and the resulting profile was used to measure the initial reaction rate (IRR) through the respective slope by linear regression. All recordings were performed in triplicate. PMA was used as the positive control. The resulting IRR values were used to calculate the % inhibition, as 100 − (Ri/Rc × 100), where Ri is the IRR in the presence of the inhibitor and Rc is the IRR in the absence of inhibitors (1% DMSO v/v final concentration). The % inhibition for at least five concentrations (range: 0.1–128 µM) for each test compound (diterpenes and PMA) were calculated, and concentration-response curves (% inhibition vs. Log[inhibitor]) were obtained by non-linear regression to determine the IC50 using GraphPad Prism 5.0 (GraphPad, San Diego, CA, USA). Finally, Ki^app values were calculated using the Cheng–Prusoff equation for competitive inhibition, assuming a 1:1 stoichiometry and that the inhibitor-binding reactions are reversible: Ki^app = IC50/(1 + [S]/Km), where [S] is the substrate (DHB) concentration and Km is the Michaelis constant. The substrate Km was calculated during the kinetic characterization of purified, recombinant LmPTR1.

L. major [1] = assay: ChEMBL dataset of pIC50 values against L. major used for the RF model (Table S1); format: cell-based, Leishmania major; further: call rule not given here
L. major [2] = tested on: L. major; set-up: method as in ChEMBL; conditions: ref ChEMBL, cited from earlier work
[3] = recombinant LmPTR1, DHB 20 µM, read-out: IC50
[4] = Active/Inactive class assigned to ChemBL structures for Random forest model construction (Table S1)
[5] = ChemBL structures with pIC50 values used for Random forest model construction (Table S1)
[6] = Active/Inactive class assigned to the ChEMBL pIC50 value for Random forest model construction, ref ChEMBL
[7] = ChemBL structures with pIC50 values used for Random forest model construction, L. major

Row | SMILES | Outcome (L. major [1]; [6]) | pIC50 Value (L. major [2]; [7]) | also measured
1 | C=C1CC23CCC4C(C)(C(=O)O)C(OC(=O)C=Cc5ccc(O)cc5)CCC4(C)C2(O)CCC1C3 (stereo not drawn) [301a, 3α-p-coumaroyloxy-9β-hydroxy-ent-kaur-16-en-19-oic Acid] | – | – | Ki (LmPTR1; read-out: Ki^app): 5.08 µM; IC50 (LmPTR1; [3]): 23.2 µM
2 | C=C1CC23CCC4C(C)(CCC(OC(=O)C=Cc5ccc(O)cc5)C4(C)C(=O)O)C2CCC1C3 (stereo not drawn) [302a, 3α-p-coumaroyloxy-ent-kaur-16-en-19-oic acid] | – | – | improvement of inhibitory activity versus 302 (LmPTR1; 3α-p-coumaroyloxy instead of 3α-cinnamoyloxy): approximately 60%; Ki (LmPTR1; read-out: Ki^app): 1.33 µM; IC50 (LmPTR1; [3]): 6.1 µM
3 | COc1ccc(/C=N\NC(N)=S)cc1OCc1cn(CC(=O)c2ccc(Cl)cc2)nn1 [CHEMBL4163696] | – | – | Outcome (L. major [1]; [4]): Active; pIC50 Value (L. major [2]; [5]): 5.77
4 | COc1cc(/C=N\NC(N)=S)ccc1OCc1cn(CC(=O)c2ccc(Cl)cc2)nn1 [CHEMBL4164916] | Active | 5.27 | –
5 | COc1ccc(/C=N/NC(N)=S)cc1OCc1cn(-c2ccc(S(N)(=O)=O)cc2)nn1 [CHEMBL4165645] | – | – | Outcome (L. major [1]; [4]): Active; pIC50 Value (L. major [2]; [5]): 5.36
6 | C/C(=N/NC(N)=S)c1ccc(OCc2cn(CC(=O)c3ccc(Br)cc3)nn2)cc1 [CHEMBL4166113] | – | – | Outcome (L. major [1]; [4]): Active; pIC50 Value (L. major [2]; [5]): 6.00
7 | COc1ccc(/C=N/NC(N)=S)cc1OCc1cn(CC(=O)c2ccc(F)cc2)nn1 [CHEMBL4167146] | – | – | Outcome (L. major [1]; [4]): Active; pIC50 Value (L. major [2]; [5]): 5.32
8 | C/C(=N/NC(N)=S)c1ccc(OCc2cn(-c3ccc(C(=O)O)cc3)nn2)cc1 [CHEMBL4169531] | Active | 5.13 | –
9 | COc1cc(/C=N/NC(N)=S)ccc1OCc1cn(CC(=O)c2ccc(F)cc2)nn1 [CHEMBL4170543] | Active | 5.16 | –
10 | COc1ccc(/C=N\NC(N)=S)cc1OCc1cn(CC(=O)c2ccccc2)nn1 [CHEMBL4171583] | – | – | Outcome (L. major [1]; [4]): Active; pIC50 Value (L. major [2]; [5]): 5.36
11 | COc1ccc(/C=N/NC(N)=S)cc1OCc1cn(CC(=O)c2ccc(C)cc2)nn1 [CHEMBL4173573] | – | – | Outcome (L. major [1]; [4]): Active; pIC50 Value (L. major [2]; [5]): 5.66
12 | COc1cc(/C=N/NC(N)=S)ccc1OCc1cn(-c2ccc(C(=O)O)cc2)nn1 [CHEMBL4173978] | Active | 5.24 | –
13 | COc1ccc(/C=N/NC(N)=S)cc1OCc1cn(-c2ccc(C(=O)O)cc2)nn1 [CHEMBL4174032] | – | – | Outcome (L. major [1]; [4]): Active; pIC50 Value (L. major [2]; [5]): 5.30
14 | COc1ccc(/C=N\NC(N)=S)cc1OCc1cn(CC(=O)c2ccc(Br)cc2)nn1 [CHEMBL4175020] | Active | 5.24 | –
15 | COc1cc(/C=N\NC(N)=S)ccc1OCc1cn(CC(=O)c2ccccc2)nn1 [CHEMBL4175538] | Active | 5.27 | –
16 | C/C(=N/NC(N)=S)c1ccc(OCc2cn(-c3ccc(S(N)(=O)=O)cc3)nn2)cc1 [CHEMBL4177394] | Active | 5.08 | –
17 | CC1(C)C2CCC1(C)[C@H](OC(=O)/C=C/c1ccc(O)c(O)c1)C2 (stereo partly drawn) [CHEMBL4177500] | Inactive | 4.31 | –
18 | CC(C)N1CN(CC(=O)O)CSC1=S [CHEMBL4277354] | Inactive | 3.86 | –
19 | CCCCN1CSC(=S)N(CC(=O)O)C1 [CHEMBL4278695] | Inactive | 4.44 | –
20 | CCCN1CN(CC(=O)OCC)CSC1=S [CHEMBL4279218] | Inactive | 3.97 | –

Row | SMILES | Outcome (L. major [1]; [6]) | pIC50 Value (L. major [2]; [7]) | also measured
21 | CC(c1ccccc1)N1CN(CCO)CSC1=S (stereo not drawn) [CHEMBL4279631] | Inactive | 4.49 | –
22 | CCCN1CSC(=S)N(CC(=O)O)C1 [CHEMBL4282164] | Inactive | 4.16 | –
23 | CC(C)N1CSC(=S)N(C(C)c2ccccc2)C1 (stereo not drawn) [CHEMBL4283106] | Inactive | 4.67 | –
24 | CCCCN1CN(CC(=O)O)CSC1=S [CHEMBL4283328] | Inactive | 4.61 | –
25 | CCN1CN(CC(=O)O)CSC1=S [CHEMBL4284377] | Inactive | 4.48 | –
26 | CCN1CSC(=S)N(C(C)c2ccccc2)C1 (stereo not drawn) [CHEMBL4286479] | Inactive | 4.34 | –
27 | CC(c1ccccc1)N1CN(CC(=O)O)CSC1=S (stereo not drawn) [CHEMBL4286679] | Inactive | 4.51 | –
28 | CCCCN1CSC(=S)N(C(C)c2ccccc2)C1 (stereo not drawn) [CHEMBL4287541] | Inactive | 4.67 | –
29 | CCCN1CN(CC(=O)O)CSC1=S [CHEMBL4287780] | Inactive | 4.41 | –
30 | CCCN1CN(CC(=O)OCc2ccccc2)CSC1=S [CHEMBL4289905] | Inactive | 4.03 | –
31 | O=C(O)CN1CN(CCO)CSC1=S [CHEMBL4290046] | Inactive | 4.40 | –
32 | CCCN1CSC(=S)N(C(C)c2ccccc2)C1 (stereo not drawn) [CHEMBL4290968] | Inactive | 4.62 | –
33 | COc1ccc(CN2CN(CC(=O)O)CSC2=S)cc1OC [CHEMBL4291183] | Inactive | 4.81 | –
34 | CCCCN1CN(CC(=O)OCC)CSC1=S [CHEMBL4294357] | Inactive | 4.44 | –
35 | CCCN1CN(CC(=O)OC)CSC1=S [CHEMBL4294585] | Inactive | 3.69 | –
36 | CCN1CSC(=S)N(CC(=O)O)C1 [CHEMBL4294782] | Inactive | 4.34 | –
37 | CCc1nc(N)nc(N)c1-c1ccc(Cl)cc1 [PMA, pyrimethamine, reference compound] | – | – | Ki (LmPTR1): 0.24 µM; IC50 (LmPTR1; IC50, recombinant LmPTR1, DHB 20 µM): 1.11 µM
38 | C=C1C[C@@]23CC[C@@H]4[C@](C)(C(=O)O[C@H]5C=C(C)[C@@H](O)C[C@@H]5C(C)C)CCC[C@@]4(C)C2CC[C@@H]1C3 (stereo partly drawn) [compound 135, 2β-hydroxy-menth-6-en-5β-yl ent-kaurenoate] | – | – | Ki (LmPTR1; read-out: Ki^app): 1.88 µM; IC50 (LmPTR1; [3]): 8.6 µM
39 | C=C1C[C@@]23CCC4[C@](C)(C(=O)O)[C@H](OC(=O)/C=C/c5ccccc5)CC[C@@]4(C)[C@]2(O)CC[C@@H]1C3 (stereo partly drawn) [compound 301, 3α-Cinnamoyloxy-9β-hydroxy-ent-kaur-16-en-19-oic Acid] | – | – | Ki (LmPTR1; read-out: Ki^app): 4.64 µM; IC50 (LmPTR1; [3]): 21.2 µM
40 | C=C1C[C@@]23CCC4[C@](C)(C(=O)O)[C@H](OC(=O)/C=C/c5ccccc5)CC[C@@]4(C)[C@@H]2CC[C@@H]1C3 (stereo partly drawn) [compound 302, 3α-cinnamoyloxy-ent-kaur-16-en-19-oic acid] | – | – | Ki (LmPTR1; read-out: Ki^app): 2.1 µM; IC50 (LmPTR1; [3]): 9.6 µM
